Reference: US7138361B2, “Herbicidal heterocycles” (E. I. du Pont de Nemours and Company, priority 2000, dated 2006)

Experiments:
Type in all cases: in vivo
[1] = system: velvetleaf (Abutilon theophrasti); test: Test A postemergence, sprayed to runoff; design: scale not given here; conditions: approx. eleven days
Method: (§1) Seeds of barnyardgrass (Echinochloa crus-galli), crabgrass (Digitaria spp.), giant foxtail (Setaria viridis), morning glory (Ipomoea spp.), redroot pigweed (Amaranthus retroflexus) and velvetleaf (Abutilon theophrasti) were planted into a sandy loam soil and treated preemergence by soil drench with test chemicals formulated in a non-phytotoxic solvent mixture which included a surfactant. At the same time, these crop and weed species were also treated postemergence sprayed to runoff with test chemicals formulated in the same manner. Plants ranged in height from two to eighteen cm and were in the one- to two-leaf stage for the postemergence treatment. Treated plants and untreated controls were maintained in a greenhouse for approximately eleven days, after which time all treated plants were compared to untreated controls and visually evaluated for injury. Plant response ratings, summarized in Table A, are based on a 0 to 10 scale where 0 is no effect and 10 is complete control. A dash (-) response means no test results.

[2] = system: morning glory (Ipomoea spp.); test: Test A postemergence, sprayed to runoff; design: scale not given here; conditions: Morningglory, approx. eleven days
Method: as §1

[3] = system: redroot pigweed (Amaranthus retroflexus); test: Test A postemergence, sprayed to runoff; conditions: approx. eleven days
Method: as §1

[4] = system: barnyardgrass (Echinochloa crus-galli); test: Test A postemergence, sprayed to runoff; conditions: approx. eleven days
Method: as §1

[5] = system: giant foxtail (Setaria viridis); test: Test A postemergence, sprayed to runoff; conditions: approx. eleven days
Method: as §1

[6] = system: crabgrass (Digitaria spp.); test: Test A postemergence, sprayed to runoff; conditions: approx. eleven days
Method: as §1

[7] = system: redroot pigweed (Amaranthus retroflexus); test: Test A preemergence, soil drench; conditions: approx. eleven days
Method: as §1

[8] = system: velvetleaf (Abutilon theophrasti); test: Test A preemergence, soil drench; conditions: approx. eleven days
Method: as §1

[9] = system: barnyardgrass (Echinochloa crus-galli); test: Test A preemergence, soil drench; conditions: approx. eleven days
Method: as §1

[10] = system: morning glory (Ipomoea spp.); test: Test A preemergence, soil drench; conditions: Morningglory, approx. eleven days
Method: as §1

[11] = system: giant foxtail (Setaria viridis); test: Test A preemergence, soil drench; conditions: approx. eleven days
Method: as §1

[12] = system: crabgrass (Digitaria spp.); test: Test A preemergence, soil drench; conditions: approx. eleven days
Method: as §1

[13] = system: lambsquarters (Chenopodium album); test: Test C postemergence
Outline: (§2)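 Response scores (0 no effect to 100 complete control) came from visual comparison with untreated controls 12 to 14 days after treatment. Preemergence application was made to seeded soil; postemergence, to plants at the 1- to 4-leaf stage.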

[14] = system: velvetleaf (Abutilon theophrasti); test: Test C postemergence
Outline: as §2

[15] = system: goosegrass (Eleusine indica); test: Test C postemergence
Outline: as §2

soybean (Glycine max) = test: Test C postemergence
Outline: as §2

[16] = Rate 250 g/ha, scale 0 to 100 (0 no effect, 100 complete control)
[17] = Rate 500 g/ha, scale 0 to 100 (0 no effect, 100 complete control)

Row | Structure (SMILES) | Plant response rating (visual injury vs untreated controls) ([1]; Rate 500 g/ha) | Plant response rating (visual injury vs untreated controls) ([1]; Rate 2000 g/ha) | Plant response rating (visual injury vs untreated controls) ([2]; Rate 500 g/ha) | Plant response rating (visual injury vs untreated controls) ([2]; Rate 2000 g/ha) | Plant response rating (visual injury vs untreated controls) ([3]; Rate 500 g/ha) | Plant response rating (visual injury vs untreated controls) ([3]; Rate 2000 g/ha) | Plant response rating (visual injury vs untreated controls) ([4]; Rate 500 g/ha) | Plant response rating (visual injury vs untreated controls) ([4]; Rate 2000 g/ha) | Plant response rating (visual injury vs untreated controls) ([5]; Rate 500 g/ha) | Plant response rating (visual injury vs untreated controls) ([5]; Rate 2000 g/ha) | Plant response rating (visual injury vs untreated controls) ([6]; Rate 500 g/ha) | Plant response rating (visual injury vs untreated controls) ([6]; Rate 2000 g/ha) | Plant response rating (visual injury vs untreated controls) ([7]; Rate 500 g/ha) | Plant response rating (visual injury vs untreated controls) ([7]; Rate 2000 g/ha) | Plant response rating (visual injury vs untreated controls) ([8]; Rate 500 g/ha) | Plant response rating (visual injury vs untreated controls) ([8]; Rate 2000 g/ha) | Plant response rating (visual injury vs untreated controls) ([9]; Rate 500 g/ha) | Plant response rating (visual injury vs untreated controls) ([9]; Rate 2000 g/ha) | Plant response rating (visual injury vs untreated controls) ([10]; Rate 500 g/ha) | Plant response rating (visual injury vs untreated controls) ([10]; Rate 2000 g/ha) | further results
1 | CC(C)(C)c1ccn(C2SCN(c3cccc(C(F)(F)F)c3)C2=O)n1 (stereo not shown) [Compound 1] | 10 | 30 | 90 | 90 | 20 | 90 | 60 | 90 | 30 | 30 | 10 | 10 | 100 | 100 | 10 | 70 | 90 | 100 | 10 | 80 | Plant response rating (visual injury vs untreated controls) ([11]; Rate 500 g/ha): 90; Plant response rating (visual injury vs untreated controls) ([11]; Rate 2000 g/ha): 100; Plant response rating (visual injury vs untreated controls) ([12]; Rate 500 g/ha): 90; Plant response rating (visual injury vs untreated controls) ([12]; Rate 2000 g/ha): 100
2 | CC1(C)CCc2cn(C3CCN(c4cccc(C(F)(F)F)c4)C3=O)nc21 (stereo not shown) [Compound 10] | 0 | 50 | 10 | 20 | 20 | 100 | 20 | 10 | 10 | 10 | 10 | 10 | 100 | 100 | 20 | 10 | 100 | 100 | 0 | 20 | Plant response rating (visual injury vs untreated controls) ([11]; Rate 500 g/ha): 90; Plant response rating (visual injury vs untreated controls) ([11]; Rate 2000 g/ha): 100; Plant response rating (visual injury vs untreated controls) ([12]; Rate 500 g/ha): 90; Plant response rating (visual injury vs untreated controls) ([12]; Rate 2000 g/ha): 100
3 | CC1CCc2cn(C3CCN(c4cccc(C(F)(F)F)c4)C3=O)nc21 (stereo not shown) [Compound 11] | 0 | 0 | 10 | 10 | 70 | 90 | 20 | 40 | 0 | 50 | 0 | 10 | 100 | 100 | 0 | 20 | 100 | 100 | 0 | 0 | Plant response rating (visual injury vs untreated controls) ([11]; Rate 500 g/ha): 100; Plant response rating (visual injury vs untreated controls) ([11]; Rate 2000 g/ha): 100; Plant response rating (visual injury vs untreated controls) ([12]; Rate 500 g/ha): 100; Plant response rating (visual injury vs untreated controls) ([12]; Rate 2000 g/ha): 100
4 | O=C1C(n2cc(Cl)c(C3CC3)n2)CCN1c1cccc(C(F)(F)F)c1 (stereo not shown) [Compound 12] | 0 | 0 | 0 | 0 | 0 | 0 | 0 | 0 | 0 | 0 | 0 | 0 | 0 | 40 | 0 | 0 | 0 | 0 | 0 | 0 | Plant response rating (visual injury vs untreated controls) ([11]; Rate 500 g/ha): 0; Plant response rating (visual injury vs untreated controls) ([11]; Rate 2000 g/ha): 30; Plant response rating (visual injury vs untreated controls) ([12]; Rate 500 g/ha): 0; Plant response rating (visual injury vs untreated controls) ([12]; Rate 2000 g/ha): 60
5 | CCCOc1cc(N2CCC(n3ccc(C(C)(C)C)n3)C2=O)ccc1C (stereo not shown) [Compound 107] | – | – | – | – | – | – | – | – | – | – | – | – | – | – | – | – | – | – | – | – | Plant response rating, Lambsquarters ([13]; Rate 62 g/ha, scale 0 to 100): 50; Plant response rating, Lambsquarters [13, 16]: 100; Plant response rating, Lambsquarters [13, 17]: 100; Plant response rating, Velvetleaf ([14]; Rate 62 g/ha, scale 0 to 100): 30; Plant response rating, Velvetleaf [14, 16]: 50; Plant response rating, Velvetleaf [14, 17]: 80; Plant response rating, Velvetleaf ([14]; scale 0 to 100): 40; Plant response rating, Goosegrass ([15]; Rate 62 g/ha, scale 0 to 100): 0; Plant response rating, Goosegrass [15, 16]: 0; Plant response rating, Goosegrass [15, 17]: 0; Plant response rating, Soybean (soybean (Glycine max); Rate 62 g/ha, scale 0 to 100): 0; Plant response rating, Soybean (soybean (Glycine max); [16]): 20; Plant response rating, Soybean (soybean (Glycine max); [17]): 25
6 | COc1cc(N2CCC(n3ccc(C(C)C)n3)C2=O)ccc1Cl (stereo not shown) [Compound 120] | – | – | – | – | – | – | – | – | – | – | – | – | – | – | – | – | – | – | – | – | Plant response rating, Lambsquarters ([13]; Rate 62 g/ha, scale 0 to 100): 50; Plant response rating, Lambsquarters [13, 16]: 90; Plant response rating, Lambsquarters [13, 17]: 100; Plant response rating, Velvetleaf ([14]; Rate 62 g/ha, scale 0 to 100): 0; Plant response rating, Velvetleaf [14, 16]: 0; Plant response rating, Velvetleaf [14, 17]: 0; Plant response rating, Velvetleaf ([14]; scale 0 to 100): 0; Plant response rating, Goosegrass ([15]; Rate 62 g/ha, scale 0 to 100): 0; Plant response rating, Goosegrass [15, 16]: 0; Plant response rating, Goosegrass [15, 17]: 60; Plant response rating, Soybean (soybean (Glycine max); Rate 62 g/ha, scale 0 to 100): 30; Plant response rating, Soybean (soybean (Glycine max); [16]): 60; Plant response rating, Soybean (soybean (Glycine max); [17]): 60
7 | CCCC(C)c1ccn(C2CCN(c3ccc(Cl)c(OC)c3)C2=O)n1 (stereo not shown) [Compound 121] | – | – | – | – | – | – | – | – | – | – | – | – | – | – | – | – | – | – | – | – | Plant response rating, Lambsquarters ([13]; Rate 62 g/ha, scale 0 to 100): 90; Plant response rating, Lambsquarters [13, 16]: 100; Plant response rating, Lambsquarters [13, 17]: 100; Plant response rating, Velvetleaf ([14]; Rate 62 g/ha, scale 0 to 100): 0; Plant response rating, Velvetleaf [14, 16]: 20; Plant response rating, Velvetleaf [14, 17]: 40; Plant response rating, Velvetleaf ([14]; scale 0 to 100): 0; Plant response rating, Goosegrass ([15]; Rate 62 g/ha, scale 0 to 100): 0; Plant response rating, Goosegrass [15, 16]: 20; Plant response rating, Goosegrass [15, 17]: 50; Plant response rating, Soybean (soybean (Glycine max); Rate 62 g/ha, scale 0 to 100): 50; Plant response rating, Soybean (soybean (Glycine max); [16]): 60; Plant response rating, Soybean (soybean (Glycine max); [17]): 70
8 | Cc1ccc(N2CCC(n3ccc(C(C)(C)C)n3)C2=O)cc1I (stereo not shown) [Compound 122] | – | – | – | – | – | – | – | – | – | – | – | – | – | – | – | – | – | – | – | – | Plant response rating, Lambsquarters ([13]; Rate 62 g/ha, scale 0 to 100): 100; Plant response rating, Lambsquarters [13, 16]: 100; Plant response rating, Lambsquarters [13, 17]: 100; Plant response rating, Velvetleaf ([14]; Rate 62 g/ha, scale 0 to 100): 0; Plant response rating, Velvetleaf [14, 16]: 0; Plant response rating, Velvetleaf [14, 17]: 20; Plant response rating, Velvetleaf ([14]; scale 0 to 100): 0; Plant response rating, Goosegrass ([15]; Rate 62 g/ha, scale 0 to 100): 0; Plant response rating, Goosegrass [15, 16]: 0; Plant response rating, Goosegrass [15, 17]: 0; Plant response rating, Soybean (soybean (Glycine max); Rate 62 g/ha, scale 0 to 100): 40; Plant response rating, Soybean (soybean (Glycine max); [16]): 50; Plant response rating, Soybean (soybean (Glycine max); [17]): 60
